20 compounds from patent US11673910B2, “Macrolides with modified desosamine sugars and uses thereof” (Zikani Therapeutics, Inc., priority 2017, dated 2023) can be followed below.

What is called MIC is the lowest concentration that inhibits growth of the organism.

Converted amounts (≈) assume the structure as drawn.

What all share (format): cell-based
Assay [1] concerns S. aureus strain MP-12. As to the kind of experiment: Broth dilution MIC determination (CLSI) against S. aureus strain MP-12. The note with it: Staphylococcus aureus, MP12, strain MP-12. As for the experimental part: (§1) Minimum inhibitory concentrations (MICs) for macrolides described herein were determined for E. coli strain MP-4, K. pneumoniae strain MP-548, P. aeruginosa strain MP-3, A. baumannii strain MP-15, and S. aureus strain MP-12 using similar test procedures as published in US Pat. Pub. No. 2017/0305953. MIC data is represented as “+++” for values less than or equal to 4 mg/L, “++” for values of greater than or equal to 8 mg/L and less than 32 mg/L, and “+” for values of 32 mg/L or greater. ND indicates no data for a particular compound. CLSI standard procedures for broth dilution MIC determination were used.
Background: In broth dilution the organism is exposed to a series of concentrations in liquid medium.

Assay [2] concerns E. coli strain MP-4. The experiment in a line: Broth dilution MIC determination (CLSI) against E. coli strain MP-4. The note with it: Escherichia coli, MP4. The procedure: as §1
For assay [3], the system named is A. baumannii strain MP-15. The experiment in a line: Broth dilution MIC determination (CLSI) against A. baumannii strain MP-15. The note with it: Acinetobacter baumannii, MP15. As for the experimental part: as §1
For assay [4], the system named is P. aeruginosa strain MP-3. As to the kind of experiment: Broth dilution MIC determination (CLSI) against P. aeruginosa strain MP-3. The note with it: Pseudomonas aeruginosa, MP3. As for the experimental part: as §1
The test system of assay [5] is K. pneumoniae strain MP-548. As to the kind of experiment: Broth dilution MIC determination (CLSI) against K. pneumoniae strain MP-548. The note with it: Klebsiella pneumoniae, MP548. The procedure: as §1

Consider `CCCCCCCCNCC1CC(N(C)C)C(O)[C@H](O[C@@H]2[C@@H](C)C(=O)C(C)C(=O)O[C@H](CC)[C@@]3(C)OC(=O)N[C@@H]3[C@@H](C)NC[C@H](C)C[C@@]2(C)OC)O1` (stereo partly shown) [Compound 54], for which the minimum inhibitory concentration (MIC) in assay [1] is not below 32 µg/mL; in assay [2] it was 8 to 32 µg/mL (≈ 10.8 to 43.2 µM); in assay [3], not below 32 µg/mL; in assay [4], not below 32 µg/mL; in assay [5], not below 32 µg/mL.
Regarding `CCCCCCCCCCNCC1CC(N(C)C)C(O)[C@H](O[C@@H]2[C@@H](C)C(=O)C(C)C(=O)O[C@H](CC)[C@@]3(C)OC(=O)N[C@@H]3[C@@H](C)NC[C@H](C)C[C@@]2(C)OC)O1` (stereo partly shown) [Compound 55], the MIC in assay [1] was not below 32 µg/mL; in assay [2], 8 to 32 µg/mL (≈ 10.4 to 41.6 µM); in assay [3], not below 32 µg/mL; in assay [4], not below 32 µg/mL; in assay [5], not below 32 µg/mL.
In the case of `CC[C@H]1OC(=O)C(C)C(=O)[C@H](C)[C@@H](O[C@@H]2OC(CNCC3COC3)CC(N(C)C)C2O)[C@](C)(OC)C[C@@H](C)CN[C@H](C)[C@H]2NC(=O)O[C@@]21C` (stereo partly shown) [Compound 56], the MIC is not below 32 µg/mL in assay [1]; 8 to 32 µg/mL (≈ 11.4 to 45.8 µM) in assay [2]; not below 32 µg/mL in assay [3]; not below 32 µg/mL in assay [4]; not below 32 µg/mL in assay [5].
`CC[C@H]1OC(=O)C(C)C(=O)[C@H](C)[C@@H](O[C@@H]2OC(CO)CC(N(C)C)C2O)[C@](C)(OC)C[C@@H](C)CN[C@H](C)[C@H]2NC(=O)O[C@@]21C` (stereo partly shown) [Compound 57]: the MIC is not below 32 µg/mL in assay [1]; 8 to 32 µg/mL (≈ 12.7 to 50.8 µM) in assay [2]; not below 32 µg/mL in assay [3]; not below 32 µg/mL in assay [4]; not below 32 µg/mL in assay [5].
For `CC[C@H]1OC(=O)[C@@]2(C)CCOC(C)(C[C@@H](C)CN[C@H](C)[C@H]3NC(=O)O[C@@]31C)[C@H](O[C@@H]1OC(CNC3CC3)CC(N(C)C)C1O)[C@@H](C)C2=O` (stereo partly shown) [Compound 80], the MIC in assay [1] is not above 4 µg/mL; in assay [2], not above 4 µg/mL; in assay [3], 8 to 32 µg/mL (≈ 11.7 to 47 µM); in assay [4], 8 to 32 µg/mL (≈ 11.7 to 47 µM); in assay [5], not above 4 µg/mL.
Take `CC[C@H]1OC(=O)[C@@](C)(F)C(=O)[C@H](C)[C@@H](O[C@@H]2OC(CNCc3ccc(-c4cncnc4)cc3)CC(N(C)C)C2O)[C@](C)(OC)C[C@@H](C)C(=O)[C@H](C)[C@H]2NC(=O)O[C@@]21C` (stereo partly shown) [Compound 92]: the MIC is not above 4 µg/mL in assay [1]; not below 32 µg/mL in assay [2]; not below 32 µg/mL in assay [3]; not below 32 µg/mL in assay [4]; not below 32 µg/mL in assay [5].
Take `CC[C@H]1OC(=O)[C@@](C)(F)C(=O)[C@H](C)[C@@H](O[C@@H]2OC(CNCc3cccc(-c4cncnc4)c3)CC(N(C)C)C2O)[C@](C)(OC)C[C@@H](C)C(=O)[C@H](C)[C@H]2NC(=O)O[C@@]21C` (stereo partly shown) [Compound 93]: the MIC in assay [1] is not above 4 µg/mL; in assay [2], not below 32 µg/mL; in assay [3], not below 32 µg/mL; in assay [4] it was not below 32 µg/mL; in assay [5], not below 32 µg/mL.
For the compound `CC[C@H]1OC(=O)[C@@](C)(F)C(=O)[C@H](C)[C@@H](O[C@@H]2OC(CNc3ccc(-c4cncnc4)cc3)CC(N(C)C)C2O)[C@](C)(OC)C[C@@H](C)C(=O)[C@H](C)[C@H]2NC(=O)O[C@@]21C` (stereo partly shown) [Compound 94], the MIC in assay [1] was not above 4 µg/mL; in assay [2], not below 32 µg/mL; in assay [3], 8 to 32 µg/mL (≈ 10 to 40 µM); in assay [4], not below 32 µg/mL; in assay [5] it was not below 32 µg/mL.
With `CC[C@H]1OC(=O)[C@@](C)(F)C(=O)[C@H](C)[C@@H](O[C@@H]2OC(CNCc3ccccn3)CC(N(C)C)C2O)[C@](C)(OC)C[C@@H](C)C(=O)[C@H](C)[C@H]2NC(=O)O[C@@]21C` (stereo partly shown) [Compound 100], the MIC in assay [1] is not above 4 µg/mL; in assay [2], 8 to 32 µg/mL (≈ 10.9 to 43.4 µM); in assay [3], not below 32 µg/mL; in assay [4], not below 32 µg/mL; in assay [5] it was not below 32 µg/mL.
`CC[C@H]1OC(=O)[C@@](C)(F)C(=O)[C@H](C)[C@@H](O[C@@H]2OC(CNCc3cccnc3)CC(N(C)C)C2O)[C@](C)(OC)C[C@@H](C)C(=O)[C@H](C)[C@H]2NC(=O)O[C@@]21C` (stereo partly shown) [Compound 101]: the MIC in assay [1] was not above 4 µg/mL; in assay [2] it was not below 32 µg/mL; in assay [3] it was not below 32 µg/mL; in assay [4], not below 32 µg/mL; in assay [5], not below 32 µg/mL.
Regarding `CC[C@H]1OC(=O)[C@@](C)(F)C(=O)[C@H](C)[C@@H](O[C@@H]2OC(CNCc3ccn(C)n3)CC(N(C)C)C2O)[C@](C)(OC)C[C@@H](C)C(=O)[C@H](C)[C@H]2NC(=O)O[C@@]21C` (stereo partly shown) [Compound 102], the MIC in assay [1] is not above 4 µg/mL; in assay [2], 8 to 32 µg/mL (≈ 10.8 to 43.3 µM); in assay [3], not below 32 µg/mL; in assay [4], not below 32 µg/mL; in assay [5] it was not below 32 µg/mL.
Consider `CC[C@H]1OC(=O)[C@@](C)(F)C(=O)[C@H](C)[C@@H](O[C@@H]2OC(COCCO)CC(N(C)C)C2O)[C@](C)(OC)C[C@@H](C)C(=O)[C@H](C)[C@H]2NC(=O)O[C@@]21C` (stereo partly shown) [Compound 103], for which the minimum inhibitory concentration (MIC) in assay [1] was not above 4 µg/mL; in assay [2] it was not below 32 µg/mL; in assay [3] it was not below 32 µg/mL; in assay [4], not below 32 µg/mL; in assay [5], not below 32 µg/mL.
For the compound `CC[C@H]1OC(=O)[C@@](C)(F)C(=O)[C@H](C)[C@@H](O[C@@H]2OC(COC/C=C/c3cnc4ccccc4c3)CC(N(C)C)C2O)[C@](C)(OC)C[C@@H](C)C(=O)[C@H](C)[C@H]2NC(=O)O[C@@]21C` (stereo partly shown) [Compound 104], the MIC is not above 4 µg/mL in assay [1]; not below 32 µg/mL in assay [2]; 8 to 32 µg/mL (≈ 9.83 to 39.3 µM) in assay [3]; not below 32 µg/mL in assay [4]; not below 32 µg/mL in assay [5].
Turning to `CC[C@H]1OC(=O)[C@@](C)(F)C(=O)[C@H](C)[C@@H](O[C@@H]2OC(COC/C=C/c3cncnc3)CC(N(C)C)C2O)[C@](C)(OC)C[C@@H](C)C(=O)[C@H](C)[C@H]2NC(=O)O[C@@]21C` (stereo partly shown) [Compound 105], the MIC in assay [1] was not above 4 µg/mL; in assay [2] it was not below 32 µg/mL; in assay [3], not below 32 µg/mL; in assay [4] it was not below 32 µg/mL; in assay [5], not below 32 µg/mL.
For `CC[C@H]1OC(=O)C(C)C(=O)[C@H](C)[C@@H](OC2OC(CNC)CC(N(C)C)C2O)[C@](C)(OC)C[C@@H](C)CN[C@H](C)[C@H]2NC(=O)O[C@@]21C` (stereo partly shown) [Compound 106, 3-Descladinosyl-3-oxo-6-O-methyl-N9a-desmethyl-11,12-dideoxy-12,11-(oxycarbonylimino)-6′-methylamino Azithromycin], the minimum inhibitory concentration (MIC) is not below 32 µg/mL in assay [1]; 8 to 32 µg/mL (≈ 12.4 to 49.8 µM) in assay [2]; not below 32 µg/mL in assay [3]; not below 32 µg/mL in assay [4]; not below 32 µg/mL in assay [5].
As to `CCNCC1CC(N(C)C)C(O)C(O[C@@H]2[C@@H](C)C(=O)C(C)C(=O)O[C@H](CC)[C@@]3(C)OC(=O)N[C@@H]3[C@@H](C)NC[C@H](C)C[C@@]2(C)OC)O1` (stereo partly shown) [Compound 108, 3-Descladinosyl-3-oxo-6-O-methyl-N9a-desmethyl-11,12-dideoxy-12,11-(oxycarbonylimino)-6′-ethylamino azithromycin], the minimum inhibitory concentration (MIC) in assay [1] is not below 32 µg/mL; in assay [2], 8 to 32 µg/mL (≈ 12.2 to 48.7 µM); in assay [3], not below 32 µg/mL; in assay [4], not below 32 µg/mL; in assay [5], not below 32 µg/mL.
Turning to `CC[C@H]1OC(=O)C(C)C(=O)[C@H](C)[C@@H](OC2OC(CNC(C)C)CC(N(C)C)C2O)[C@](C)(OC)C[C@@H](C)CN[C@H](C)[C@H]2NC(=O)O[C@@]21C` (stereo partly shown) [Compound 109, 3-Descladinosyl-3-oxo-6-O-methyl-N9a-desmethyl-11,12-dideoxy-12,11-(oxycarbonylimino)-6′-isopropylamino Azithromycin], the MIC is not below 32 µg/mL in assay [1]; 8 to 32 µg/mL (≈ 11.9 to 47.7 µM) in assay [2]; not below 32 µg/mL in assay [3]; not below 32 µg/mL in assay [4]; not below 32 µg/mL in assay [5].
Turning to `CC[C@H]1OC(=O)C(C)C(=O)[C@H](C)[C@@H](OC2OC(CNC(C)(C)C)CC(N(C)C)C2O)[C@](C)(OC)C[C@@H](C)CN[C@H](C)[C@H]2NC(=O)O[C@@]21C` (stereo partly shown) [Compound 110, 3-Descladinosyl-3-oxo-6-O-methyl-N9a-desmethyl-11,12-dideoxy-12,11-(oxycarbonylimino)-6′-tert-butylamino Azithromycin], the MIC in assay [1] was not below 32 µg/mL; in assay [2], not above 4 µg/mL; in assay [3], not below 32 µg/mL; in assay [4], not below 32 µg/mL; in assay [5] it was 8 to 32 µg/mL (≈ 11.7 to 46.7 µM).
Take `CC[C@H]1OC(=O)C(C)C(=O)[C@H](C)[C@@H](OC2OC(CNCCF)CC(N(C)C)C2O)[C@](C)(OC)C[C@@H](C)CN[C@H](C)[C@H]2NC(=O)O[C@@]21C` (stereo partly shown) [Compound 111, 3-Descladinosyl-3-oxo-6-O-methyl-N9a-desmethyl-11,12-dideoxy-12,11-(oxycarbonylimino)-6′-(2-fluoroethylamino) Azithromycin]: the MIC in assay [1] was not below 32 µg/mL; in assay [2], not above 4 µg/mL; in assay [3], not below 32 µg/mL; in assay [4], not below 32 µg/mL; in assay [5], not above 4 µg/mL.
`CC[C@H]1OC(=O)C(C)C(=O)[C@H](C)[C@@H](OC2OC(CNCC(F)(F)F)CC(N(C)C)C2O)[C@](C)(OC)C[C@@H](C)CN[C@H](C)[C@H]2NC(=O)O[C@@]21C` (stereo partly shown) [Compound 112, 3-Descladinosyl-3-oxo-6-O-methyl-N9a-desmethyl-11,12-dideoxy-12,11-(oxycarbonylimino)-6′-(2-trifluoroethylamino) Azithromycin]: the MIC in assay [1] is not above 4 µg/mL; in assay [2], not above 4 µg/mL; in assay [3], 8 to 32 µg/mL (≈ 11.3 to 45 µM); in assay [4] it was not below 32 µg/mL; in assay [5] it was 8 to 32 µg/mL (≈ 11.3 to 45 µM).
